Our source for the IC50 values is PubChem BioAssay AID1949 (Southern Research Institute, 2009).

Values after ≈ are worked out from the molar mass of the structure shown. Records with an inconclusive call do not appear. Active and inactive are the calls of the source. No rule for the calls is given here.

This assay deals with M. tuberculosis H37Rv growth inhibition. The assay can be described thus: Mycobacterium tuberculosis H37Rv growth inhibition, cell based, confirmatory dose response (AID 1949).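 Also: bacteria grown 7 days with compound before Alamar blue readout.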
The term IC50 denotes the concentration at which inhibition is half-maximal. On to `c1ccc(CNc2nc(N3CCN(Cc4ccccc4)CC3)nc3ccccc23)cc1`, for which the IC50 is 1.5 µg/mL (≈ 3.66 µM).
The same measure for `Cc1oc2ccc(OCC(=O)OCc3ccccc3)cc2c1C(=O)OC(C)C`: 9.08 µg/mL (≈ 23.7 µM); for `COc1cc(C(=O)Oc2ccc3c(c2)CCCC3)cc(OC)c1OC`: > 50 µg/mL (inactive); for `CC(=O)c1ccc(COC(=O)c2ccc([N+](=O)[O-])cc2Cl)cc1`: 40.7 µg/mL (≈ 122 µM).
The same measure for `CCc1ccccc1-n1c(=O)oc2ccc(Cl)cc2c1=O`: 1.37 µg/mL (≈ 4.54 µM).
Turning to `OC(COc1ccc2ccccc2c1Br)Cn1ccnc1` (centres undefined), the IC50 is 5.39 µg/mL (≈ 15.5 µM).
As for `O=S1(=O)C=CC2ON=C(c3c(Cl)cccc3Cl)C21` (centres undefined), the figure is 10.8 µg/mL (≈ 35.6 µM).
As to `CCOC(=O)C(Oc1ccc2oc(C)c(C(=O)OC)c2c1)c1ccccc1` (centres undefined), the IC50 is 2.95 µg/mL (≈ 8.01 µM).
As for `COc1cc(NC(=O)c2ccc3c(c2)OCCO3)ccc1NC(=O)c1ccccc1Cl`, the IC50 is 0.66 µg/mL (≈ 1.5 µM).
Regarding `CCOC(=O)COc1c(Cl)cc(/C=C(/C#N)c2nc3ccc(OC)cc3[nH]2)cc1Cl`, the IC50 was 0.2 µg/mL (≈ 0.448 µM).
The same measure for `O=C(CC12CC3CC(CC(C3)C1)C2)NC(=S)Nc1cccc(Br)c1`: > 50 µg/mL (inactive); for `Cc1cccc(Nc2nc(N)nc(CN3CCN(c4cccc(Cl)c4)CC3)n2)c1`: 0.39 µg/mL (≈ 0.951 µM); for `CC(=O)N/C(=N/c1nc(C)cc(C)n1)Nc1ccc(C)cc1C`: > 50 µg/mL (inactive).
Consider `O=C(Nc1ccccc1)Nc1ccc(S(=O)(=O)Nc2cccc(C(F)(F)F)c2)cc1`, for which the IC50 is 2.28 µg/mL (≈ 5.24 µM).
As to `CCc1ccc(OCC(=O)NNC(=O)c2cnccn2)c(Br)c1`, the IC50 was 1.12 µg/mL (≈ 2.95 µM).
As for `c1ccc(CCNc2nc3ccccc3[nH]2)cc1`, the figure is 2.94 µg/mL (≈ 12.4 µM); as for `O=C(Cc1ccc(Cl)cc1)Nc1nc2ccc(Cl)cc2s1`, 3.22 µg/mL (≈ 9.55 µM).
Consider `O=C(CNS(=O)(=O)c1cccc(C(F)(F)F)c1)N1CCN(c2ccc(Cl)c(Cl)c2)CC1`, for which the IC50 is 4.79 µg/mL (≈ 9.65 µM).
As for `COc1ccc(C(=O)O/N=C(\N)Cc2ccc(Cl)c(Cl)c2)cc1OC`, the figure is 9.32 µg/mL (≈ 24.3 µM).
As for `O=C(Nc1ccc(Cl)c(Cl)c1)c1ccc(Cl)cc1Cl`, the figure is 5.19 µg/mL (≈ 15.5 µM); as for `O=C(CCN1Cc2ccccc2C1)c1ccc2c(c1)OCCO2`, > 50 µg/mL (inactive).
As for `Cc1cc(C)n(-c2nc3sc4c(c3c(=O)[nH]2)CCCC4)n1`, the figure is 24.4 µg/mL (≈ 81.1 µM).
On to `O=C(OCc1c(F)cccc1Cl)c1cc2ccccc2oc1=O`, for which the IC50 was > 50 µg/mL (inactive).
The same measure for `Cc1ccc(OCC(O)CN2CCc3ccccc3C2)c(C(C)(C)C)c1` (centres undefined): 5.9 µg/mL (≈ 16.7 µM).
The same measure for `Cc1ccc2cccc(OCCOc3ccccc3C(C)C)c2n1`: 4.02 µg/mL (≈ 12.5 µM).
The same measure for `COc1cccc(CSc2nc3c(c(-c4ccccc4)c2C#N)CN(C)CC3)c1`: 22.8 µg/mL (≈ 56.9 µM).
For `O=C(Nc1ccccc1N1CCCC1)c1ccc(-c2cccc(Cl)c2)o1`, the IC50 is 6.01 µg/mL (≈ 16.4 µM).
As for `CCN1CCN(c2ccc(NC(=O)c3cc4ccccc4cc3OC)cc2Cl)CC1`, the figure is 23.9 µg/mL (≈ 56.5 µM); as for `O=C(CSc1nnc(-c2ccccc2)o1)Nc1ccc2ccccc2c1`, 1.02 µg/mL (≈ 2.82 µM); as for `O=C(Nc1ccc(OCC(F)(F)C(F)F)c(C(F)(F)F)c1)c1ccccc1O`, 5.26 µg/mL (≈ 12.8 µM).
As for `OCc1cn(-c2ccccc2)nc1-c1ccc2c(c1)OCCO2`, the figure is 6.9 µg/mL (≈ 22.4 µM); as for `C=CCN(CC=C)C(=S)NC(=O)c1ccc(F)cc1`, 0.81 µg/mL (≈ 2.91 µM); as for `CN1C(=O)N(C)c2ccc(C=O)c3cccc1c23`, > 50 µg/mL (inactive).
As for `CC(C)(C)c1ccc(C(=O)NC(=S)NCc2ccco2)cc1`, the figure is 2.16 µg/mL (≈ 6.83 µM); as for `N#Cc1cc2c(ccc3ccccc32)oc1=O`, 2.12 µg/mL (≈ 9.58 µM).
With `C/C(Cl)=C/Cc1c(C)[nH]c2ccccc2c1=O`, the IC50 is 16.6 µg/mL (≈ 67.2 µM).
The same measure for `O=C(Nc1nc2ccc(F)cc2s1)c1ccc([N+](=O)[O-])o1`: 5.11 µg/mL (≈ 16.6 µM); for `CCOc1ccc(OCC(=O)Nc2cccc(F)c2)cc1`: < 0.1 µg/mL; for `CC(=O)c1cccc(Nc2nc(-c3ccccn3)cs2)c1`: 0.98 µg/mL (≈ 3.32 µM).
For `CCCCC(=O)NC(=S)NNC(=O)c1ccc(C)c(Br)c1`, the IC50 is 2.79 µg/mL (≈ 7.49 µM).
As for `O=C(CC12CC3CC(CC(C3)C1)C2)Nc1ccc(F)c(Cl)c1`, the figure is 3.02 µg/mL (≈ 9.38 µM); as for `CC(C)(C)c1cnc(NC(=O)c2ccccc2O)s1`, 1.06 µg/mL (≈ 3.84 µM); as for `CC1CCN(c2nc(-c3cccnc3)nc3ccccc23)CC1`, > 50 µg/mL (inactive).
Turning to `COC(=O)COc1ccc2cc(-c3ccc(Cl)cc3)c(=O)oc2c1`, the IC50 is 18.8 µg/mL (≈ 54.6 µM).
The same measure for `O=C1c2ccccc2C2=Nc3cc(Cl)ccc3OC12O` (centres undefined): 5.5 µg/mL (≈ 19.3 µM).
As for `O=C(Oc1cccc2cccnc12)c1ccccc1Br`, the figure is 1.36 µg/mL (≈ 4.14 µM); as for `O=C(CCNc1cccc(Br)c1)c1cccs1`, 5.43 µg/mL (≈ 17.5 µM); as for `C=CCc1cc(Cl)ccc1OCCCNCCCC`, 5.34 µg/mL (≈ 18.9 µM).
Turning to `Cc1cc(OCCn2ccnc2)ccc1Cl`, the IC50 is 2.77 µg/mL (≈ 11.7 µM).
As for `COc1ccc(CCn2cnc3oc(-c4ccccc4)c(-c4ccccc4)c3c2=N)cc1OC`, the figure is > 50 µg/mL (inactive); as for `COc1cccc(NC(=O)CSc2ccc(Br)cc2)c1`, 11.7 µg/mL (≈ 33.2 µM); as for `CSc1nc2nc3c(c(=O)n2[nH]1)CCCC3`, 2.96 µg/mL (≈ 12.5 µM).
The same measure for `COc1ccc(-c2nnc(SCC(=O)Nc3ccc([N+](=O)[O-])cc3)o2)cc1`: 0.64 µg/mL (≈ 1.66 µM); for `CC1CCN(CCNC(=S)Nc2ccc(F)cc2)CC1`: 1.54 µg/mL (≈ 5.21 µM); for `COc1ccccc1OC(=O)c1sc2ccccc2c1Cl`: 1.37 µg/mL (≈ 4.3 µM).
As for `CCc1nc2sc(C(=O)c3ccccc3)c(N)c2cc1C`, the figure is > 50 µg/mL (inactive); as for `O=C(NC12CC3CC(CC(C3)C1)C2)N1CCN(c2cccc(Cl)c2)CC1`, 8.14 µg/mL (≈ 21.8 µM).
Take `O=C(Nc1ccc(Cl)c(C(F)(F)F)c1)C1CCN(C(=O)c2ccc(Br)cc2)CC1`: the IC50 was 7.21 µg/mL (≈ 14.7 µM).
As for `O=C(O)c1ccc(C2Nc3ccc([N+](=O)[O-])cc3C3c4ccccc4CC23)cc1` (centres undefined), the IC50 is > 50 µg/mL (inactive).
The same measure for `Cc1cccnc1NC(=S)Nc1ccc(Cl)c(Cl)c1`: 8.34 µg/mL (≈ 26.7 µM); for `COc1cccc(CN2CCC(N(CCc3ccccc3)Cc3ccccc3)CC2)c1OC`: 6.32 µg/mL (≈ 14.2 µM).
The same measure for `Cc1cc(OC(=O)c2ccco2)c2c3c(c(=O)oc2c1)CCCC3`: 23.4 µg/mL (≈ 72 µM); for `CCSCC(=O)N1CCN(c2nnc(-c3ccccc3)c3ccccc23)CC1`: 14.5 µg/mL (≈ 36.9 µM).
As for `COC(=O)CSc1nc(N2CCCCC2)c2c(c1C#N)CCCC2`, the figure is 0.17 µg/mL (≈ 0.492 µM).
For the molecule `O=[N+]([O-])c1ncn(Cc2ccc(F)cc2Cl)n1`, the half-inhibitory concentration (IC50) was 6.92 µg/mL (≈ 27 µM).
The same measure for `O=C(Cc1ccccc1)NC(=S)Nc1ccc(Oc2ccccc2)cc1`: 7.61 µg/mL (≈ 21 µM); for `Cc1ccc(NC(=O)c2cc3cc(Cl)cc(Cl)c3oc2=O)c(C)c1`: 1.1 µg/mL (≈ 3.04 µM); for `CCSc1nc2ccccc2n1C(=O)c1ccc(S(=O)(=O)N2CCOCC2)cc1`: > 50 µg/mL (inactive).
Regarding `CC(C)(C)c1cc(Cl)c(O)c(NC(=S)NC(=O)c2cccc3ccccc23)c1`, the IC50 is < 0.1 µg/mL.
The same measure for `CC(=O)Oc1c(C(=O)c2ccccc2)sc2ccccc12`: 0.71 µg/mL (≈ 2.4 µM).
On to `Clc1ccc(Cn2ncc3c(NCc4ccccc4)ncnc32)cc1`, for which the IC50 is 6.27 µg/mL (≈ 17.9 µM).
The same measure for `Cc1ccc(-c2csc(Nc3ccc(S(N)(=O)=O)cc3)n2)cc1`: 2.52 µg/mL (≈ 7.29 µM); for `O=C(O)c1ccc(NC(CC(=O)c2ccccc2)c2ccc(Br)cc2)cc1` (centres undefined): 7.58 µg/mL (≈ 17.9 µM).
Regarding `O=C(CCNc1cccc(Cl)c1)c1ccco1`, the IC50 is 3.68 µg/mL (≈ 14.7 µM).
